This note sets out measurements from US20250213494A1, “METHODS AND COMPOSITIONS FOR POTENTIATION OF A LIGAND” (priority 2022, published 2025).

The test system of this assay is RXFP1 gene expression in human fibroblast like synoviocytes. Put plainly: RXFP1 gene expression by qPCR after corticosteroid treatment under fibrotic conditions. The class given is cell-based. The conditions noted are these: qPCR (FIG. 3).

Molecules are shown by their SMILES.

Source text: RXFP1 gene expression after treatment with (left) dexamethasone, (middle) methylprednisolone, and (right) cortisone under fibrotic conditions.

As for `C[C@]12CCC(=O)C=C1CC[C@@H]1[C@@H]2C(=O)C[C@@]2(C)[C@H]1CC[C@]2(O)C(=O)CO` [cortisone], the RXFP1 gene expression result was “increases RXFP1 gene expression”.
